# Key:
# Format in all cases: in vivo
# Settings in all cases: 1000 g/Ha, evaluated after 13 days, glasshouse
# [1] = test system: Amaranthus palmeri (AMAPA); assay: Pre-emergence herbicidal activity, percentage damage to AMAPA
# Description: (§1) Seeds of a variety of test species are sown in standard soil in pots Amaranthus palmeri (AMAPA), Amaranthus retroflexus (AMARE), Setaria faberi (SETFA), Echinochloa crus-galli (ECHCG), Ipomoea hederacea (IPOHE),). After cultivation for one day (pre-emergence) or after 8 days cultivation (post-emergence) under controlled conditions in a glasshouse (at 24/160C, day/night; 14 hours light; 65% humidity), the plants are sprayed with an aqueous spray solution derived from the dissolution of the technical active ingredient in a small amount of acetone and a special solvent and emulsifier mixture referred to as IF50 (11.12% Emulsogen EL360 TM+44.44% N-methylpyrrolidone+44.44% Dowanol DPM glycol ether, which was then diluted to required concentration using 0.2% Genapol XO80 (CAS No. 9043-30-5) in water as the diluent. Compounds are applied at the rates stated. The test plants are then grown in a glasshouse under controlled conditions in a glasshouse (at 24/160C, day/night; 14 hours light; 65% humidity) and watered twice daily. After 13 days for pre and post-emergence, the test is evaluated for the percentage damage caused to the plant. The biological activities are shown in the following table on a five-point scale (5=81-100%; 4=61-80%; 3=41-60%; 2=21-40%; 1=0-20%; NT=not tested).
# [2] = test system: Amaranthus retroflexus (AMARE); assay: Post-emergence herbicidal activity, percentage damage to AMARE
# Description: as §1
# [3] = test system: Ipomoea hederacea (IPOHE); assay: Pre-emergence herbicidal activity, percentage damage to IPOHE
# Description: as §1
# [4] = test system: Setaria faberi (SETFA); assay: Pre-emergence herbicidal activity, percentage damage to SETFA
# Description: as §1
# [5] = test system: Ipomoea hederacea (IPOHE); assay: Post-emergence herbicidal activity, percentage damage to IPOHE
# Description: as §1
# [6] = test system: Echinochloa crus-galli (ECHCG); assay: Pre-emergence herbicidal activity, percentage damage to ECHCG
# Description: as §1
# [7] = test system: Setaria faberi (SETFA); assay: Post-emergence herbicidal activity, percentage damage to SETFA
# Description: as §1
# [8] = test system: Echinochloa crus-galli (ECHCG); assay: Post-emergence herbicidal activity, percentage damage to ECHCG
# Description: as §1
# [9] = test system: Amaranthus palmeri (AMAPA); assay: Post-emergence herbicidal activity, percentage damage to AMAPA
# Description: as §1
# [10] = test system: Amaranthus retroflexus (AMARE); assay: Pre-emergence herbicidal activity, percentage damage to AMARE
# Description: as §1
compound,measurement,setting,value
"O=C(O)C[C@@H]1[C@@H]2C[C@@H]2C(=O)N1Cc1ccccc1F (relative stereo) [A.61, 2-[(1R*,2R*,5S*)-3-[(2-fluorophenyl)methyl]-4-oxo-3-azabicyclo[3.1.0]hexan-2-yl]acetic acid]",percentage damage caused to the plant (AMAPA),[1],4 (61-80%)
same,percentage damage caused to the plant (AMARE),[2],4 (61-80%)
same,percentage damage caused to the plant (IPOHE),[3],1 (0-20%)
same,percentage damage caused to the plant (SETFA),[4],5 (81-100%)
same,percentage damage caused to the plant (IPOHE),[5],3 (41-60%)
same,percentage damage caused to the plant (ECHCG),[6],3 (41-60%)
same,percentage damage caused to the plant (SETFA),[7],5 (81-100%)
same,percentage damage caused to the plant (ECHCG),[8],3 (41-60%)
same,percentage damage caused to the plant (AMAPA),[9],3 (41-60%)
same,percentage damage caused to the plant (AMARE),[10],5 (81-100%)
"O=C(O)C[C@H]1[C@@H]2C[C@@H]2C(=O)N1Cc1cccc(F)c1F (relative stereo) [Compound A.04, 2-[(1R*,2S*,5S*)-3-[(2,3-difluorophenyl)methyl]-4-oxo-3-azabicyclo[3.1.0]hexan-2-yl]acetic acid]",percentage damage caused to the plant (AMAPA),[1],2 (21-40%)
same,percentage damage caused to the plant (AMARE),[2],1 (0-20%)
same,percentage damage caused to the plant (IPOHE),[3],1 (0-20%)
same,percentage damage caused to the plant (SETFA),[4],3 (41-60%)
same,percentage damage caused to the plant (IPOHE),[5],1 (0-20%)
same,percentage damage caused to the plant (ECHCG),[6],2 (21-40%)
same,percentage damage caused to the plant (SETFA),[7],4 (61-80%)
same,percentage damage caused to the plant (ECHCG),[8],3 (41-60%)
same,percentage damage caused to the plant (AMAPA),[9],1 (0-20%)
same,percentage damage caused to the plant (AMARE),[10],2 (21-40%)
"O=C(O)C[C@@H]1[C@@H]2CCCC[C@@H]2C(=O)N1Cc1cccc(F)c1F (relative stereo) [E.01, 2-[(1R*,3aS*,7aR*)-2-[(2,3-difluorophenyl)methyl]-3-oxo-3a,4,5,6,7,7a-hexahydro-1H-isoindol-1-yl]acetic acid]",percentage damage caused to the plant (AMAPA),[1],3 (41-60%)
same,percentage damage caused to the plant (AMARE),[2],1 (0-20%)
same,percentage damage caused to the plant (SETFA),[4],1 (0-20%)
same,percentage damage caused to the plant (IPOHE),[5],1 (0-20%)
same,percentage damage caused to the plant (ECHCG),[6],2 (21-40%)
same,percentage damage caused to the plant (SETFA),[7],1 (0-20%)
same,percentage damage caused to the plant (ECHCG),[8],1 (0-20%)
same,percentage damage caused to the plant (AMAPA),[9],1 (0-20%)
same,percentage damage caused to the plant (AMARE),[10],3 (41-60%)
"O=C(O)C[C@@H]1[C@@H]2C[C@@H]2C(=O)N1Cc1ccc(F)c(F)c1F (relative stereo) [Compound A.13, 2-[(1R*,2R*,5S*)-3-[(2,3,4-trifluorophenyl)methyl]-4-oxo-3-azabicyclo[3.1.0]hexan-2-yl]acetic acid]",percentage damage caused to the plant (AMAPA),[1],3 (41-60%)
same,percentage damage caused to the plant (AMARE),[2],3 (41-60%)
same,percentage damage caused to the plant (IPOHE),[3],4 (61-80%)
same,percentage damage caused to the plant (SETFA),[4],5 (81-100%)
same,percentage damage caused to the plant (IPOHE),[5],2 (21-40%)
same,percentage damage caused to the plant (ECHCG),[6],3 (41-60%)
same,percentage damage caused to the plant (SETFA),[7],5 (81-100%)
same,percentage damage caused to the plant (ECHCG),[8],3 (41-60%)
same,percentage damage caused to the plant (AMAPA),[9],2 (21-40%)
same,percentage damage caused to the plant (AMARE),[10],4 (61-80%)
"O=C(O)C[C@@H]1[C@@H]2C[C@@H]2C(=O)N1Cc1ccc(F)c(F)c1 (relative stereo) [A.73, 2-[(1R*,2R*,5S*)-3-[(3,4-difluorophenyl)methyl]-4-oxo-3-azabicyclo[3.1.0]hexan-2-yl]acetic acid]",percentage damage caused to the plant (AMAPA),[1],3 (41-60%)
same,percentage damage caused to the plant (AMARE),[2],2 (21-40%)
same,percentage damage caused to the plant (IPOHE),[3],4 (61-80%)
same,percentage damage caused to the plant (SETFA),[4],5 (81-100%)
same,percentage damage caused to the plant (IPOHE),[5],1 (0-20%)
same,percentage damage caused to the plant (ECHCG),[6],3 (41-60%)
same,percentage damage caused to the plant (SETFA),[7],4 (61-80%)
same,percentage damage caused to the plant (ECHCG),[8],3 (41-60%)
same,percentage damage caused to the plant (AMAPA),[9],1 (0-20%)
same,percentage damage caused to the plant (AMARE),[10],4 (61-80%)
"O=C(O)C[C@@H]1[C@@H]2C[C@@H]2C(=O)N1Cc1ccc(Cl)c(F)c1 (relative stereo) [A.79, 2-[(1R*,2R*,5S*)-3-[(3-fluoro-4-chloro)methyl]-4-oxo-3-azabicyclo[3.1.0]hexan-2-yl]acetic acid]",percentage damage caused to the plant (AMAPA),[1],1 (0-20%)
same,percentage damage caused to the plant (AMARE),[2],1 (0-20%)
same,percentage damage caused to the plant (IPOHE),[3],1 (0-20%)
same,percentage damage caused to the plant (SETFA),[4],4 (61-80%)
same,percentage damage caused to the plant (IPOHE),[5],1 (0-20%)
same,percentage damage caused to the plant (ECHCG),[6],2 (21-40%)
same,percentage damage caused to the plant (SETFA),[7],4 (61-80%)
same,percentage damage caused to the plant (ECHCG),[8],1 (0-20%)
same,percentage damage caused to the plant (AMAPA),[9],1 (0-20%)
same,percentage damage caused to the plant (AMARE),[10],1 (0-20%)
"O=C(O)C[C@H]1[C@@H]2CCCC[C@@H]2C(=O)N1Cc1cccc(F)c1F (relative stereo) [E.04, 2-[(1S*,3aS*,7aR*)-2-[(2,3-difluorophenyl)methyl]-3-oxo-3a,4,5,6,7,7a-hexahydro-1H-isoindol-1-yl]acetic acid]",percentage damage caused to the plant (AMAPA),[1],4 (61-80%)
same,percentage damage caused to the plant (AMARE),[2],1 (0-20%)
same,percentage damage caused to the plant (IPOHE),[3],1 (0-20%)
same,percentage damage caused to the plant (SETFA),[4],3 (41-60%)
same,percentage damage caused to the plant (IPOHE),[5],1 (0-20%)
same,percentage damage caused to the plant (ECHCG),[6],1 (0-20%)
same,percentage damage caused to the plant (SETFA),[7],1 (0-20%)
same,percentage damage caused to the plant (ECHCG),[8],1 (0-20%)
same,percentage damage caused to the plant (AMAPA),[9],1 (0-20%)
same,percentage damage caused to the plant (AMARE),[10],4 (61-80%)
"COC(=O)C[C@H]1[C@@H]2C[C@@H]2C(=O)N1Cc1cccc(F)c1F (relative stereo) [A.10, methyl 2-[(1R*,2S*,5S*)-3-[(2,3-difluorophenyl)methyl]-4-oxo-3-azabicyclo[3.1.0]hexan-2-yl]acetate]",percentage damage caused to the plant (AMAPA),[1],2 (21-40%)
same,percentage damage caused to the plant (AMARE),[2],2 (21-40%)
same,percentage damage caused to the plant (IPOHE),[3],1 (0-20%)
same,percentage damage caused to the plant (SETFA),[4],4 (61-80%)
same,percentage damage caused to the plant (IPOHE),[5],2 (21-40%)
same,percentage damage caused to the plant (ECHCG),[6],1 (0-20%)
same,percentage damage caused to the plant (SETFA),[7],4 (61-80%)
same,percentage damage caused to the plant (ECHCG),[8],2 (21-40%)
same,percentage damage caused to the plant (AMAPA),[9],1 (0-20%)
same,percentage damage caused to the plant (AMARE),[10],2 (21-40%)
"O=C(O)C[C@@H]1[C@@H]2C[C@@H]2C(=O)N1Cc1cccc(Cl)c1 (relative stereo) [A.70, 2-[(1R*,2R*,5S*)-3-[(3-chlorophenyl)methyl]-4-oxo-3-azabicyclo[3.1.0]hexan-2-yl]acetic acid]",percentage damage caused to the plant (AMAPA),[1],1 (0-20%)
same,percentage damage caused to the plant (AMARE),[2],1 (0-20%)
same,percentage damage caused to the plant (IPOHE),[3],1 (0-20%)
same,percentage damage caused to the plant (SETFA),[4],5 (81-100%)
same,percentage damage caused to the plant (IPOHE),[5],1 (0-20%)
same,percentage damage caused to the plant (ECHCG),[6],4 (61-80%)
same,percentage damage caused to the plant (SETFA),[7],4 (61-80%)
same,percentage damage caused to the plant (ECHCG),[8],3 (41-60%)
same,percentage damage caused to the plant (AMAPA),[9],3 (41-60%)
same,percentage damage caused to the plant (AMARE),[10],2 (21-40%)
"COC(=O)C[C@@H]1[C@@H]2C[C@@H]2C(=O)N1Cc1cccc(F)c1F (relative stereo) [Compound A.07, methyl 2-[(1R*,2R*,5S*)-3-[(2,3-difluorophenyl)methyl]-4-oxo-3-azabicyclo[3.1.0]hexan-2-yl]acetate]",percentage damage caused to the plant (AMAPA),[1],3 (41-60%)
same,percentage damage caused to the plant (AMARE),[2],3 (41-60%)
same,percentage damage caused to the plant (IPOHE),[3],2 (21-40%)
same,percentage damage caused to the plant (SETFA),[4],5 (81-100%)
same,percentage damage caused to the plant (IPOHE),[5],3 (41-60%)
same,percentage damage caused to the plant (ECHCG),[6],4 (61-80%)
same,percentage damage caused to the plant (SETFA),[7],4 (61-80%)
same,percentage damage caused to the plant (ECHCG),[8],3 (41-60%)
same,percentage damage caused to the plant (AMAPA),[9],3 (41-60%)
same,percentage damage caused to the plant (AMARE),[10],4 (61-80%)
"O=C(O)C[C@@H]1[C@@H]2C[C@@H]2C(=O)N1Cc1ccc(F)cc1 (relative stereo) [A.67, 2-[(1R*,2R*,5S*)-3-[(4-fluorophenyl)methyl]-4-oxo-3-azabicyclo[3.1.0]hexan-2-yl]acetic acid]",percentage damage caused to the plant (AMAPA),[1],4 (61-80%)
same,percentage damage caused to the plant (AMARE),[2],1 (0-20%)
same,percentage damage caused to the plant (IPOHE),[3],4 (61-80%)
same,percentage damage caused to the plant (SETFA),[4],3 (41-60%)
same,percentage damage caused to the plant (IPOHE),[5],2 (21-40%)
same,percentage damage caused to the plant (ECHCG),[6],3 (41-60%)
same,percentage damage caused to the plant (SETFA),[7],4 (61-80%)
same,percentage damage caused to the plant (ECHCG),[8],2 (21-40%)
same,percentage damage caused to the plant (AMAPA),[9],3 (41-60%)
same,percentage damage caused to the plant (AMARE),[10],3 (41-60%)
